{
  "source": "patent US8394765B2",
  "about": "“Methods of treating obesity with two different anti-obesity agents” (Amylin Pharmaceuticals LLC, priority 2004, dated 2013)",
  "assay_type_in_all_cases": "in vivo, rat",
  "key": {"[1]": {"experiment": "DIO rats, amylin and exendin-4 analog, body weight and body composition (Example 6)", "description": "[…]. Prior to drug administration rats had typically attained a mean body weight of 500 g Exendin-4 analog was administered by minipump at a range of doses (0.3, 1, 3, 10, 30 μg/kg/day). Amylin (dissolved in 50% DMSO in water) or vehicle was administered by mini-pump (100 μg/kg/day). Body weight and food intake was recorded daily. Body composition was measured prior to and after drug treatment using NMR (Echo Medical Systems, Houston, Tex.). For body composition measurements, rats were briefly placed (˜1 min) in a well-ventilated plexiglass tube that was then inserted into a specialized rodent NMR machine. Rats were scanned prior to pump implantation and on the final day of the experiment. This enabled the calculation of changes in actual grams of fat and dry lean tissue (e.g., grams of body fat after treatment−grams of body fat at baseline=change in grams of body fat) and changes in % body composition for fat and dry lean tissue (e.g., % body fat after treatment−% body fat at baseline=change in % body fat)."}, "[2]": {"experiment": "DIO rats, amylin and sibutramine, body weight and body composition (Example 4)", "description": "(§1) Rat amylin was dissolved in 50% DMSO in sterile water and sibutramine was dissolved in sterile water. Each group was implanted with subcutaneous osmotic mini-pumps designed to deliver vehicle, sibutramine (3 mg/kg/day) or amylin (100 μg/kg/day) for a 14 day period. Body weight and food intake were recorded daily. Body composition was measured prior to and after drug treatment using NMR (Echo Medical Systems, Houston, Tex.). For body composition measurements, rats were briefly placed (˜1 min) in a well-ventilated plexiglass tube that was then inserted into a specialized rodent NMR machine. Rats were scanned prior to pump implantation and on the final day of the experiment. This enabled the calculation of changes in actual grams of fat and dry lean tissue (e.g., grams of body fat after treatment−grams of body fat at baseline=change in grams of body fat) and changes in % body composition for fat and dry lean tissue (e.g., % body fat after treatment−% body fat at baseline=change in % body fat)."}, "[3]": {"experiment": "Serum leptin levels by immunoassay in DIO prone and normal HSD rats after amylin (Example 3)", "details": "amylin 100 μg/kg/day, 14 days, FIG. 8", "description": "DIO prone and normal HSD rats were divided into three treatment groups. Two groups were implanted with subcutaneous osmotic mini-pumps (DURECT Corp., Cupertino, Calif.) designed to deliver vehicle or amylin (100 μg/kg/day) and the third group was pair-fed to the amount consumed by the amylin-treated group for a 14 day period. Serum leptin levels were determined by immunoassays using a commercial kit (Linco Research, Inc., St. Charles, Mo.). […] Thus, DIO prone rats are hyper-leptinemic."}, "[4]": {"experiment": "Pair-feeding experiment in DIO rats, amylin+leptin (Example 2)", "details": "two weeks, ad libitum access to food, FIG. 7", "description": "Amylin is known to have an anorectic effect on a recipient. In order to examine the effect of amylin+leptin in the context of an anorectic effect of amylin, a pair-feeding experiment was performed. DIO rats and drug treatment groups were established as described above. DIO rats in the vehicle, amylin, and amylin+leptin treatment groups had ad libitum access to food, while intake in the pair-fed leptin treatment was restricted to the amount consumed by the amylin-treated group. Body weight was recorded daily for the two weeks of treatment. […] The combination of amylin+leptin results in a decrease of about 12% in body weight relative to vehicle control."}, "[5]": {"experiment": "DIO rats, amylin and phentermine, body weight and body composition (Example 4)", "description": "The combination of amylin and catecholaminergic agonist, phentermine, were also tested for effects on changes in body weight and body composition. Phentermine is classically referred to as a catecholaminergic agonist as it actually hits NA/5-HT receptors. DIO male rats were fattened and divided into four treatment groups, as described above. Each group was implanted with subcutaneous osmotic mini-pumps and/or inserted with an oral gavage, designed to deliver vehicle, phentermine (10 mg/kg/day), amylin (100 μg/kg/day) or phentermine (10 mg/kg/day)+amylin (100 μg/kg/day) for a 14 day period. The mini-pump contained either vehicle (50% DMSO in water) or amylin while the oral gavage administered either sterile water or phentermine. Body weight was recorded daily and body composition was measured prior to and after drug treatment using NMR."}, "[6]": {"experiment": "DIO (Levin) rats, amylin and CB-1 antagonist rimonabant, body weight and body composition (Example 5)", "description": "These rats were developed by Barry Levin from a line of Crl:CD®(SD)BR rats that are prone to become obese on a diet relatively high in fat and energy. They were housed individually in shoebox cages at 22 C in a 12/12-hour light dark cycle. […] Rats were habituated to oral gavage for 1 week prior to treatment. Rimonabant was administered at a range of doses (0.1, 0.3, 1.0, 3.0. 10 mg/kg/day) by oral gavage. Amylin (dissolved in 50% DMSO sterile water) or vehicle was administered by mini-pump (100 μg/kg/day). Rimonabant was always delivered just prior to lights out. Food intake and body weight were measured at 1 and 2 weeks post-treatment. Body composition was measured prior to and after drug treatment using NMR (Echo Medical Systems, Houston, Tex.). For body composition measurements, rats were briefly placed (˜1 min) in a well-ventilated plexiglass tube that was then inserted into a specialized rodent NMR machine. Rats were scanned prior to pump implantation and on the final day of the experiment. This enabled the calculation of changes in actual grams of fat and dry lean tissue (e.g., grams of body fat after treatment−grams of body fat at baseline=change in grams of body fat) and changes in % body composition for fat and dry lean tissue (e.g., % body fat after treatment−% body fat at baseline=change in % body fat)."}, "[7]": {"experiment": "In-bred DIO (Levin) rats, amylin and leptin, body weight and NMR body composition (Example 2)", "details": "two weeks, leptin 500 μg/kg/day, amylin 100 μg/kg/day, FIG. 6A", "description": "They were housed individually in shoebox cages at 22 C in a 12/12-hour light dark cycle.\nas §1, with “Body” for “Rat amylin was dissolved in 50% DMSO in sterile water and sibutramine was dissolved in sterile water. Each group was implanted with subcutaneous osmotic mini-pumps designed to deliver vehicle, sibutramine (3 mg/kg/day) or amylin (100 μg/kg/day) for a 14 day period. Body weight and food intake were recorded daily. Body”"}, "[8]": {"experiment": "DIO rats, amylin and PYY(3-36), body weight and body composition (Example 7)", "description": "Each group was implanted with subcutaneous osmotic mini-pumps, designed to deliver vehicle, PYY(3-36) (1000 μg/kg/day), amylin (100 μg/kg/day) or PYY(3-36) (1000 μg/kg/day)+amylin (100 μg/kg/day) for a 14 day period. PYY(3-36) was administered by mini-pump at a range of doses (100, 200, 400, 800, 1000 μg/kg/day). Amylin 100 μg/kg/day (dissolved in 50% DMSO sterile water), PYY(3-36) (dissolved in 50% DMSO sterile water) or vehicle was administered by mini-pump. Food intake and body weight was recorded daily. Body composition was measured prior to and after drug treatment using NMR (Echo Medical Systems, Houston, Tex.). For body composition measurements, rats were briefly placed (˜1 min) in a well-ventilated plexiglass tube that was then inserted into a specialized rodent NMR machine. Rats were scanned prior to pump implantation and on the final day of the experiment. This enabled the calculation of changes in actual grams of fat and dry lean tissue (e.g., grams of body fat after treatment−grams of body fat at baseline […]) and changes in % body composition for fat and dry lean tissue (e.g., % body fat after treatment−% body fat at baseline=change in % body fat)."}},
  "data": [
    {"substance": "Rat amylin", "values": [
      {"measurement": "changes in body fat (fat mass)", "setting": "[1]; after two weeks, FIG. 15B", "result": "relatively equivalent decrease in fat mass"},
      {"measurement": "changes in body protein (lean mass)", "setting": "[1]; after two weeks, FIG. 15C", "result": "relatively equivalent increase in lean (protein) mass"},
      {"measurement": "vehicle-corrected decrease in percent body weight", "setting": "[1]; two weeks, exendin-4 analog 10 μg/kg/day, amylin 100 μg/kg/day, FIG. 15A", "result": "~6", "unit": "%"},
      {"measurement": "changes in body fat (fat mass)", "setting": "[2]; after two weeks, FIG. 10B", "result": "Fat mass loss was evident"},
      {"measurement": "changes in body protein (lean mass)", "setting": "[2]; after two weeks, FIG. 10C", "result": "increase in lean (protein) mass"},
      {"measurement": "vehicle-corrected decrease in percent body weight", "setting": "[2]; two weeks, sibutramine 3 mg/kg/day, amylin 100 μg/kg/day, FIG. 10A", "result": "~6", "unit": "%"},
      {"measurement": "serum (plasma) leptin levels", "setting": "[3]; DIO prone rats", "result": "significantly reduced"},
      {"measurement": "serum (plasma) leptin levels", "setting": "[3]; normal HSD rats", "result": "significantly reduced"},
      {"measurement": "decrease in body weight relative to vehicle control", "setting": "[4]", "result": "~6", "unit": "%"},
      {"measurement": "changes in body fat (fat mass)", "setting": "[5]; after two weeks, FIG. 11B", "result": "greater amount of fat mass loss"},
      {"measurement": "changes in body protein (lean mass)", "setting": "[5]; after two weeks, FIG. 11C", "result": "preserved lean (protein) mass"},
      {"measurement": "vehicle-corrected decrease in percent body weight", "setting": "[5]; two weeks, phentermine 10 mg/kg/day oral gavage, amylin 100 μg/kg/day, FIG. 11A", "result": "~7", "unit": "%"},
      {"measurement": "changes in body fat (fat mass)", "setting": "[6]; after two weeks, FIG. 12B", "result": "Fat mass loss was evident"},
      {"measurement": "changes in body protein (lean mass)", "setting": "[6]; after two weeks, FIG. 12C", "result": "relatively equivalent increase in lean (protein) mass"},
      {"measurement": "vehicle-corrected decrease in percent body weight", "setting": "[6]; two weeks, rimonabant 3 mg/kg/day oral gavage, amylin 100 μg/kg/day, FIG. 12A", "result": "~6", "unit": "%"},
      {"measurement": "vehicle-corrected decrease in percent body weight", "setting": "[7]", "result": 6, "unit": "%"},
      {"measurement": "changes in body protein (lean mass)", "setting": "[8]; after two weeks, FIG. 16C", "result": "increase in lean (protein) mass"},
      {"measurement": "changes in body fat (fat mass loss)", "setting": "[8]; after two weeks, order PYY(3-36) alone, amylin alone, combination, FIG. 16B", "result": "Increasing amount of fat mass loss"},
      {"measurement": "vehicle-corrected decrease in percent body weight", "setting": "[8]; two weeks, PYY(3-36) 1000 μg/kg/day, amylin 100 μg/kg/day, FIG. 16A", "result": "~7", "unit": "%"}
    ]}
  ]
}
